Measurements as given in publication PMC6838324, “A suicide inhibitor of nematode trehalose-6-phosphate phosphatases” (Scientific Reports, 2019).
“And” between values parts separate entries of the source, which are not always exact repeats. Equal values may be shown once. “Also recorded” adds a separate entry of the source. Read-outs that look alike come from different tables or passages of the source.

What was measured:
Acey-TPP = Acey-TPP (Ancylostoma ceylanicum, UniProt A0A016UGW6); test: biochemical; conditions: for inhibition at 25 µM: read-out: inhibition of Acey-TPP enzyme activity
Chain of Acey-TPP (A0A016UGW6 entry or part of it): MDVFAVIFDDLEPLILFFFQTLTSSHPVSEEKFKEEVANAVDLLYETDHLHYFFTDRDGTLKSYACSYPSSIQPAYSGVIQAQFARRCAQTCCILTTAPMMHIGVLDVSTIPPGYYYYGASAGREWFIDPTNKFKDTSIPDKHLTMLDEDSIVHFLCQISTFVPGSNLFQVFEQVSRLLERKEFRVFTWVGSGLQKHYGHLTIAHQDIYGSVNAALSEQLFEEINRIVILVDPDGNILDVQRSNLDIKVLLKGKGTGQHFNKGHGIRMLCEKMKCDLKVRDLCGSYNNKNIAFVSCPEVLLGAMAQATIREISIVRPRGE
Procedure: (§1) Compounds were prepared in stocks of increasing concentration such that only 2 μL was added to reaction wells, thus keeping the DMSO concentration consistent at 4%. Enzyme in the absence of compound (with DMSO only) was run as a control and after correction for background absorbance, all test wells were scaled relative to the enzyme-only control. IC50 values were determined through fitting using either the software application SDAR[50] or DRfit[51].

Hcon-TPP1 = Hcon-TPP1 (Haemonchus contortus, UniProt A0A7I4Z3L8); test: biochemical; conditions: for Ki: read-out: app. Ki, Hcon-TPP1, assuming a competitive inhibition model; for inhibition at 25 µM: read-out: inhibition of Hcon-TPP1 enzyme activity
Chain of Hcon-TPP1 (A0A7I4Z3L8 entry or part of it): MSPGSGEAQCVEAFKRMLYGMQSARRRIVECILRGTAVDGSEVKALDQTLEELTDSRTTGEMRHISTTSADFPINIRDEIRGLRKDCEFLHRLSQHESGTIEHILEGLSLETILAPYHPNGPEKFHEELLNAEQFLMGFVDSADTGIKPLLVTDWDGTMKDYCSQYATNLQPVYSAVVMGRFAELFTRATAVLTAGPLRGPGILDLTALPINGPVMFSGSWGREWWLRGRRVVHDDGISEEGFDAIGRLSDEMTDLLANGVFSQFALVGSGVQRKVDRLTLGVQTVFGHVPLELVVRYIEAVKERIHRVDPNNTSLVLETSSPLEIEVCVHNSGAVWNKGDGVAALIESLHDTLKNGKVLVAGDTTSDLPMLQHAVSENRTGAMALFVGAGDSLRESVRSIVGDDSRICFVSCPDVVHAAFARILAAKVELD
Procedure: as §1

Tcan-TPP = Tcan-TPP (Toxocara canis, UniProt A0A0B2V3X6); test: biochemical; format: biochemical
Chain of Tcan-TPP (A0A0B2V3X6 entry or part of it): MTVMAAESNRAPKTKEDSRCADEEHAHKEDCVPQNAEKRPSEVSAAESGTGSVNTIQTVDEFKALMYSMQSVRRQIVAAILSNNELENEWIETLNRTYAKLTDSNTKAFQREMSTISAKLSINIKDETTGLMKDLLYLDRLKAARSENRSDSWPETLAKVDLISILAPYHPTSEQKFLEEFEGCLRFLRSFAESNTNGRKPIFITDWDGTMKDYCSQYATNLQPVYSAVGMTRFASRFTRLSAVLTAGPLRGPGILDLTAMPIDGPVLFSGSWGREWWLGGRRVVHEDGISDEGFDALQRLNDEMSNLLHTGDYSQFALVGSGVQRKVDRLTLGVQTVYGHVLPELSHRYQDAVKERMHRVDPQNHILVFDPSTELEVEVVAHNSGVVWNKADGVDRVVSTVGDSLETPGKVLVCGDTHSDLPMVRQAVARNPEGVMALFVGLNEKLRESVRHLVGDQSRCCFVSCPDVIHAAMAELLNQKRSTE
Procedure: as §1

Paer-ecTPP = Paer-ecTPP (Pseudomonas aeruginosa, UniProt B3G2E1); test: Phosphatase end-point assay, extra-chromosomal TPP from P. aeruginosa; format: biochemical
Chain of Paer-ecTPP (B3G2E1 entry or part of it): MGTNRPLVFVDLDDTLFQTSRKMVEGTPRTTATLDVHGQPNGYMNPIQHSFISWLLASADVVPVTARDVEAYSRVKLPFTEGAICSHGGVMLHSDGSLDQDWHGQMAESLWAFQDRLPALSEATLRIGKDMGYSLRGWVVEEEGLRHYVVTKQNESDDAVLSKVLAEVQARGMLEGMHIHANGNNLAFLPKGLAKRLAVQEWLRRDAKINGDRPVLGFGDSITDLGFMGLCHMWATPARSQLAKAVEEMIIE
Procedure: as §1

TPP from M. tuberculosis = TPP from M. tuberculosis (Mycobacterium tuberculosis, UniProt P9WFZ5); test: Phosphatase end-point assay, M. tuberculosis TPP; format: biochemical; conditions: 25 μM compound
Chain of TPP from M. tuberculosis (P9WFZ5 whole entry, looked up): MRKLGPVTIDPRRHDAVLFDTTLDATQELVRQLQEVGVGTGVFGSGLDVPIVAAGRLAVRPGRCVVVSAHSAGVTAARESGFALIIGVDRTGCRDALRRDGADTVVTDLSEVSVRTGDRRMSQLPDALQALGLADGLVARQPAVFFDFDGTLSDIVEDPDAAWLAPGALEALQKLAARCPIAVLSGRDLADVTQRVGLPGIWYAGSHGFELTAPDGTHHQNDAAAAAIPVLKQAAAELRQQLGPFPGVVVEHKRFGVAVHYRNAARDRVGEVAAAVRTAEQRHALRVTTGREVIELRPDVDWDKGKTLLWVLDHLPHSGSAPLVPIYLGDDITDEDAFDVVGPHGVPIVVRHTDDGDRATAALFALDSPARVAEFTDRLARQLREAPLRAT

Tcan-TPP-C215S = test: Phosphatase end-point assay, C215S mutant of T. canis TPP; format: biochemical, Toxocara canis; conditions: 25 μM compound
T. cati L3 larvae = test: L3 larvae survival assay, T. cati; format: cell-based
Procedure: (§2) Control larvae were maintained in 0.4% DMSO in Minimal Essential Medium. The survival of L3s exposed to the compound was assessed at several time points after the start of the incubation using a light microscope (at 40× maginification).

T. canis L3 larvae = test: L3 larvae survival assay, T. canis; format: cell-based
Procedure: as §2

H. contortus xL3 larvae = test: Motility assay of exsheathed third-stage larvae (xL3) of H. contortus; format: cell-based, Haemonchus contortus; conditions: 25 μM and 100 μM compound
Procedure: The effects of compound 1 were assessed in a motility assay using exsheathed third-stage larvae (xL3s) of H. contortus in 96-well microculture plates (Corning 3635; Life Sciences, USA) and the control compounds moxidectin and monepantel, following the published protocol. In brief, 1 was diluted to the final concentration of 100 µM using Luria Bertani medium (LB) supplemented with 100 IU/mL of penicillin, 100 μg mL^−1 of streptomycin and 2.5 μg mL^−1 of amphotericin (LB*), and then dispensed in triplicate into wells of a 96-well microculture plate using a multichannel pipette. Additionally, the negative controls (LB*, LB* + 0.5% solvent; six wells each), and positive controls (20 µM monepantel; Zolvix, Novartis Animal Health, Switzerland and 20 µM moxidectin; Cydectin, Virbac, France; triplicate wells) and xL3s (~300 per well) were dispensed into wells of the plate using an automated multichannel pipette. Following incubation at 38 °C and 10% CO2 for 72 h, a video recording of 5 s duration was taken of each well using a grayscale camera (Rolera Bolt, QImaging, Canada) and a motorized X-Y axis stage (BioPoint2, Ludl Electronic Products, USA). Videos were processed to calculate a motility index (MI) using an algorithm described previously.

TPP from S. pneumoniae = test: Phosphatase end-point assay, S. pneumoniae TPP; conditions: 25 μM compound
Procedure: (§3) Phosphatase end-point assays were carried out following a previously established protocol[35]. Briefly, the phosphatase activity of Acey-TPP and Tcan-TPP was assessed using 500 μM trehalose-6-phosphate and 10 μM enzyme to be tested. Reactions were carried out in a volume of 50 μL in assay buffer (100 mM NaCl, 20 mM TRIS, pH 7.5). Individual compounds were added to the reaction mixtures at a final concentration of 25 μM, followed by incubation for 5 min before reactions were initiated by the addition of substrate (final DMSO concentration of 4%).
(§4) Reactions were allowed to proceed for 5 min before quenching with 100 μL of BIOMOL® Green reagent (Enzo Life Sciences, New York, NY, USA). Absorbance at 620 nm was determined using a BioTek® Synergy 2 plate reader (BioTek, Winooski, VT, USA) after an incubation period of 15 min for colour development. All reactions were set up in triplicate in 96-well plates (Corning, Sigma-Aldrich, NSW, Australia) at 25 °C and control experiments in the absence of enzyme were used to correct for background absorbance.
(§5) Raw data were exported as spreadsheets from the plate reader and assembled for statistical analysis with R[48] using the software jBar[49] for calculation of means and standard errors, background correction, normalisation and significance evaluation by a two-sided t-test.

TPP from S. maltophilia = test: Phosphatase end-point assay, S. maltophilia TPP; conditions: 25 μM compound
Procedure: as §3, §4, §5

[1] = target: TPPs from different nematode and bacterial organisms; conditions: read-out: inhibition constants; cited from earlier work
mycobacterial TPPs = system: mycobacterial TPPs; set-up: method as in PMID 30402996; conditions: cited from earlier work
[2] = 25 μM compound, compared with uninhibited enzyme
[3] = listed as N-(phenylthio)phthalimide

SMILES: O=C1c2ccccc2C(=O)N1Sc1ccccc1 [Compound 1, N-(phenylthio)phthalimide]
- inhibitory effect on phosphatase activity under reducing conditions (Acey-TPP; 25 μM compound, 1 mM DTT, Acey-TPP): entirely suppressed
- inhibition of Acey-TPP enzyme activity (Acey-TPP; [2]): complete annihilation
- inhibition at 25 µM (Acey-TPP): > 50%
- concentration at which enzymatic activity is almost entirely suppressed (Hcon-TPP1; H. contortus TPP, dose-response): > 25 µM
- IC50 (Hcon-TPP1; Hcon-TPP1, phosphatase end-point assay): 6.6 ± 0.36 µM
- Ki (Hcon-TPP1): 6 µM
- Ki (Hcon-TPP1; [3]): 5.8 µM
- inhibition at 25 µM (Hcon-TPP1): 82%
- IC50 (Tcan-TPP): 0.89 ± 0.037 µM
- inhibitory effect on phosphatase activity under reducing conditions (Tcan-TPP; 25 μM compound, 1 mM DTT, Tcan-TPP): entirely suppressed
- inhibition of Tcan-TPP enzyme activity (Tcan-TPP; [2]): complete annihilation
- Ki (Tcan-TPP; app. Ki, Tcan-TPP, assuming a competitive inhibition model): 0.6 µM and 0.56 µM
- inhibition of phosphatase activity (Paer-ecTPP; 25 μM compound, P. aeruginosa extra-chromosomal TPP): susceptible to inhibition
- Ki (Paer-ecTPP; Paer-ecTPP, assuming a competitive inhibition model, read-out: app. Ki): 2.1 µM
- IC50 (Paer-ecTPP; Paer-ecTPP, phosphatase end-point assay): 2.1 ± 0.19 µM
- inhibition of phosphatase activity (TPP from M. tuberculosis): only the extra-chromosomal TPP from P. aeruginosa was susceptible to inhibition
- effect on enzymatic activity of mutant Tcan-TPP-C215S (Tcan-TPP-C215S): did not affect the enzymatic activity
- lethality (T. cati L3 larvae; T. cati larvae, 100 μM, after 3 h): > 80%
- LC50 (T. cati L3 larvae; Toxocara cati, 24 h, read-out: half maximum lethal concentration (IC50 in survival assay)): 9.3 µM
- lethality (T. canis L3 larvae; T. canis larvae, 100 μM, after 24 h): > 80%
- LC50 (T. canis L3 larvae; Toxocara canis, 24 h, read-out: half maximum lethal concentration): 61 µM
- motility of exsheathed H. contortus larvae (xL3) (H. contortus xL3 larvae): only weakly impaired
- motility of exsheathed H. contortus larvae (xL3) (H. contortus xL3 larvae; [3]): no bioactivity was observed; also recorded: no significant effects
- inhibition of phosphatase activity (TPP from S. pneumoniae): only the extra-chromosomal TPP from P. aeruginosa was susceptible to inhibition
- inhibition of phosphatase activity (TPP from S. maltophilia): only the extra-chromosomal TPP from P. aeruginosa was susceptible to inhibition

SMILES: O=C1NC(=O)c2ccccc21 [Compound 3, phthalimide]
- inhibition at 25 µM (Acey-TPP): ≤ 20%
- inhibition at 25 µM (Hcon-TPP1): ≤ 20%
- inhibition at 25 µM (Tcan-TPP; read-out: inhibition of Tcan-TPP enzyme activity): ≤ 20%

SMILES: O=S(=O)(O)OC[C@H]1O[C@H](O[C@H]2O[C@H](CO)[C@@H](O)[C@H](O)[C@H]2O)[C@H](O)[C@@H](O)[C@@H]1O [trehalose-6-sulphate]
- Ki [1]: 50 to 300 µM

SMILES: OCC1=C[C@@H](N[C@H]2C[C@H](CO)[C@@H](O[C@H]3O[C@@H](CO)[C@H](O)[C@@H](O)[C@@H]3O)[C@H](O)[C@H]2O)[C@H](O)[C@@H](O)[C@@H]1O [validamycin A]
- IC50 (mycobacterial TPPs): 12600 to 15000 µM
